One assay deals with osteoclast (OC). The assay is described as follows: osteoclast (OC) inhibitory activity in vitro using mouse bone marrow cells (osteoclast culture). Type of assay: cell-based. Particulars: for activity in osteoclast culture assay: in vitro, qualitative ranking; for OC numbers: mouse bone marrow cells, vehicle 239+/−17. The method, then: To determine if these AF-BP structural modifications improved the osteoclast (OC) inhibitory activity, these modifications were tested in vitro using mouse bone marrow cells.

A further assay has as its system bone slice resorption. The assay is described as follows: bone slice resorption assay. It counts as cell-based. Particulars: in vitro, qualitative ranking.

In the case of `O=C(CCNC(=O)c1ccc(-c2c3ccc(=O)cc-3oc3cc(O)ccc23)c(C(=O)O)c1)NCC(O)C[n+]1cccc(CC(O)(P(=O)(O)O)P(=O)(O)O)c1` (centres unmarked) [Compound 13, 1-(3-(3-(3-carboxy-4-(6-hydroxy-1-oxo-3H-xanthen-9-yl)benzamido)propanamido)-2-hydroxypropyl)-3-(2-hydroxy-2,2-diphosphonoethyl)pyridin-1-ium], the “activity in osteoclast culture assay” value in the assay with osteoclast (OC) was “most active”. Also, the “activity in bone slice resorption assay” value with bone slice resorption is recorded as “most active”.

With `O=C(CCNC(=O)c1ccc(C(=O)O)c(-c2c3ccc(=O)cc-3oc3cc(O)ccc23)c1)NCC(O)C[n+]1cccc(CC(O)(P(=O)(O)O)P(=O)(O)O)c1` (centres unmarked) [Compound 14, 1-(3-(3-(4-carboxy-3-(6-hydroxy-3-oxo-3H-xanthen-9-yl)benzamido)propanamido)-2-hydroxypropyl)-3-(2-hydroxy-2,2-diphosphonoethyl)pyridin-1-ium], the “activity in osteoclast culture assay” value with osteoclast (OC) is recorded as “most active”. Further, the “activity in bone slice resorption assay” value in the assay with bone slice resorption is reported as “most active”.

Regarding `O=C(CCOCCOCCOCCOCCNC(=O)c1ccc(-c2c3ccc(=O)cc-3oc3cc(O)ccc23)c(C(=O)O)c1)NCC(O)C[n+]1cccc(CC(O)(P(=O)(O)O)P(=O)(O)O)c1` (centres unmarked) [Compound 21, 1-(1-(3-carboxy-4-(6-hydroxy-3-oxo-3H-xanthen-9-yl)phenyl)-20-hydroxy-1,17-dioxo-5,8,11,14-tetraoxa-2,18-diazahenicosan-21-yl)-3-(2-hydroxy-2,2-diphosphonoethyl)pyridin-1-ium], the “activity in osteoclast culture assay” value in the assay on osteoclast (OC) is on record as “most active”. In the assay on bone slice resorption, the “activity in bone slice resorption assay” value is recorded as “most active”.

As for `O=C(CCOCCOCCOCCOCCNC(=O)c1ccc(C(=O)O)c(-c2c3ccc(=O)cc-3oc3cc(O)ccc23)c1)NCC(O)C[n+]1cccc(CC(O)(P(=O)(O)O)P(=O)(O)O)c1` (centres unmarked) [Compound 22], the “activity in osteoclast culture assay” value in the assay on osteoclast (OC) was “most active”. In addition, in the assay on bone slice resorption, the “activity in bone slice resorption assay” value is listed as “most active”.

Regarding `O=P(O)(O)C(O)(Cc1cccnc1)P(=O)(O)O` [RIS, (1-hydroxy-2-pyridin-3-ylethane-1,1-diyl)bis(phosphonic acid), reference compound], the OC numbers in the assay with osteoclast (OC) (0.1 uM) was 214+/−37; in the assay with osteoclast (OC) (1 uM) it was 220+/−28; in the assay with osteoclast (OC) (10 uM) it was 143+/−21.

These data come from patent publication US20180362559A1, “BONE ACTIVE NITROGEN-CONTAINING BISPHOSPHONATES WITH A NEAR INFRARED FLUORESCENT LABEL” (University of Southern California, priority 2015, published 2018).
